Data: a melting point compilation (Tetko et al.; mined from patent text by program, amines drawn as free bases though some values may be those of a salt)

melting point [°C]	SMILES
76 to 78	Oc1ccccc1OCC1NCCS1 (configuration not stated)
93 to 94	COc1ccc(C=CC(=O)c2cccc(O)c2)cc1
140	COc1cc(CSc2ccc(O)cc2)cc(O)c1O
123 to 126	Cc1c(SCCSCc2ccncc2)ccnc1CNc1cnc2ccccc2c1
118 to 120	CCC(O)(CC)[C@@H]1C[C@@H]([C@H](CC2CCCCC2)NC(=O)OC(C)(C)C)OC1=O
259 to 261	CN1C(C(=O)Nc2cccccc2=O)=C(O)c2ccccc2S1(=O)=O
154 to 157	CC(C)(C)c1cc(N(C(=O)C=CC(=O)O)c2ccccc2)cc(C(C)(C)C)c1O
172 to 173	O=C(NCc1ccccc1)Nc1ccc(N2CC(c3ccccc3)CC2=O)cn1 (configuration not stated)
102 to 103	CCOC(=O)CC(=O)Nc1ccc([N+](=O)[O-])cc1
231 to 234	Cc1nc(N)c2nc(CO)n(CC(C)C)c2c1C
130	COc1ccc(C2=N[C@H](c3ccccc3)[C@@H](OC(=O)Nc3ccc(Cl)c(Cl)c3)CO2)cc1 (racemic)
188 to 190	Cc1[nH]cnc1/C=C/C(=O)c1cc2ccccc2s1
128 to 131	C=CCc1c(Cl)cc2c(c1O)OC(COS(=O)(=O)c1ccc(C)cc1)C2 (configuration not stated)
75 to 77	O=[N+]([O-])c1ccc2c(c1)C(Cl)=NC(CF)(CF)O2
208 to 210	FC(F)(F)Oc1ccc2nc(-c3ccccc3)[nH]c2c1
166 to 168	Cc1cn(C)cc1C(=O)O
92 to 94	CCOC(=O)C(C)(Sc1nc2ccc(OCC)cc2s1)c1ccccc1 (configuration not stated)
214	O=C(NC(=O)c1c(F)cccc1F)Nc1ccc(F)c(C(F)(F)F)c1Cl
143 to 144	CCOC(NC(=O)c1cccc(OC)c1)C(N)=O (configuration not stated)
198 to 200	N#Cc1cc(F)ccc1-c1cncc(OC2SCC(O)C(O)C2O)c1 (configuration not stated)

melting point [°C]	SMILES
128 to 129	O=C1OCCC1Oc1ccc(C(F)(F)F)cc1[N+](=O)[O-] (configuration not stated)
183 to 184	COc1ccc(-c2nc(CCl)nc3cc(OC)c(OC)cc23)cc1OC
190 to 193	Cc1nc(-c2cc(Cl)ccc2Cl)n2c1nnc1ccc(-c3cc(Cl)ccc3Cl)cc12
260 to 268	CCCCCCC(NC(=O)OCc1ccccc1)P(=O)(O)CC(=O)OC (configuration not stated)
54 to 55	CC(C)COC(=O)c1ccc(N)cc1N
188 to 191	COc1cccc(CNC(=O)c2cc3c(=O)n(CCC(=O)c4ccccc4)c(=O)n(C)c3s2)c1
228 to 231	Oc1ccc2c(c1)COc1c-2cc2ccc(O)cc2c1-c1cccc(C(F)(F)F)c1
81 to 82	Nc1ccc(C2OCCO2)nc1
64 to 66	CCCCN(C1=C(O)C[C@@](CCc2cccc(O)c2)(C2CCCC2)OC1=O)c1ccccc1
144 to 145	COc1cc(C=CC=O)ccc1OCc1coc(-c2ccccc2)n1
208 to 211	CC(CC=CC=CCC(=O)O)C1CCC2C3CCC4CC(O)CCC4(C)C3CC(O)C12C (configuration not stated)
95 to 97	c1ccc(CCNc2nc3ccccc3c3[nH]c(C4CCCC4)nc23)cc1
235 to 237	CN(C)c1nc2ccccc2n(-c2ccc(Cl)cc2)c1=O
44 to 46	O=C(Nc1ccccc1N1CCc2cc(Cl)ccc21)c1ccccc1
229 to 230	CC(C)(C)C(=O)OCOC(=O)c1c2n(c3cc4c(cc3c1=O)OCO4)CCS2
134 to 143	Fc1cc(C(F)(F)F)cc(Cl)c1Oc1ccc2cn[nH]c2c1
104 to 105	O=C1CCCCC1c1ncc[nH]1 (configuration not stated)
161 to 162	O=C(NCC12CC3CC(CC(C3)C1)C2)c1cc(Cl)ccc1Cl
104	CC(C)(C)[C@@H](O)c1cccc(-c2ccc(OCCO)cc2)n1
180 to 182	COCCOC1CCN(c2ccc(NC(=O)c3cnn(-c4ccc(Cl)cc4)c3C)cc2C#N)CC1

melting point [°C]	SMILES
261 to 263	O=C(O)c1ccccc1NCCCn1c2ccc(O)cc2c2c3c(c(-c4ccccc4Cl)cc21)C(=O)NC3=O
78 to 80	Nc1ccc(Cl)c(Cl)c1Br
221 to 223	O=C(O)C(Cc1ccccc1)Oc1ccc2cc(-c3nc(-c4ccccc4)sc3Br)ccc2c1Br (configuration not stated)
83 to 85	COc1cccc(/C(C#N)=C/c2ccc(OC)c(OC3CCCC3)c2)c1
172 to 175	CC(C)(C(=O)c1ccccc1)C(N)=S
174 to 180	Cc1cc(N2CCOCC2)c2cccc(OCc3c(Cl)ccc(-n4cccc4CNC(=O)C=Cc4ccc(C(=O)O)cc4)c3Cl)c2n1
141 to 142	COC(=O)C(C(=O)Nc1ccc(F)cc1)=C1SCS1
180 to 181	CC(=O)c1ccc(S(=O)(=O)NCC(F)(F)F)cc1
146 to 147	CCOCc1nc2c(N)nc3ccccc3c2n1CCCCS(=O)(=O)NC(C)C
108 to 110	CCCc1cc(-c2ccc(Cl)cc2)nc2c(I)cnn12
> 275	Cc1ccc(C(=O)Nc2nc(-c3ccccc3)c(-c3nc4ccccc4c(=O)n3-c3ccccc3)s2)cc1
138	Cc1cc(CNS(=O)(=O)c2ccc(Br)s2)cc(C)n1
178 to 181	CC(C)(C)OC(=O)NC1CNC(=O)C12CC2 (configuration not stated)
168 to 170	CC(C)(C)OC(=O)c1ncn2c1C(C)(C)N(C(=O)N1CCCC1)c1cc(F)ccc1-2
187 to 189	CN1CCC(n2ccc(-c3ccc(F)cc3)c2-c2ccncc2)CC1
57 to 58	O=c1cc(-c2ccccc2)oc2ccc(OCCCCCCCCN3CCC(O)CC3)cc12
124 to 126	CCCCCCCCOc1cc2cc(C(=O)OC)c(C(=O)OC)c(-c3ccncc3)c2cc1OC
76 to 77	CCC(C)(C)c1cc(C(=O)CI)cc(C(C)(C)CC)c1O
85 to 87	Cc1cc(Cl)ccc1C(=O)NN(CCF)CCF
104 to 105	O=C(O)CCCN1CCN2c3ccccc3Cc3ccccc3C2C1 (configuration not stated)

The next lines start with the compound.

SMILES	melting point [°C]
NCCSc1c(S(=O)(=O)c2ccccc2)c2ccccc2n1Cc1ccccc1	149 to 150
CCN1C(=O)C(C)(C)C(=O)N(C)c2cc(CN(CCn3ccc4oc(C)cc4c3=O)Cc3cccnc3COC)ccc21	127 to 129
OCCCc1cccc(CCCO)c1O	176 to 187
Nc1c(-c2cc(Cl)ccc2O)c2c(Cl)cc(Cl)cc2[nH]c1=O	275 to 277
COc1cc(C(O)(C(F)(F)F)C(F)(F)F)cc(C)c1O	44 to 45
COC(=O)c1cc2cc(OC)c(OC)cc2c(-c2cccnc2)c1C(=O)OC	95 to 96
OC(Cn1ccnc1)(Cn1cncn1)c1ccc(Cl)cc1Cl (configuration not stated)	169 to 170
CCN1C(=O)c2cccnc2N(C)c2nc(-c3ccc[nH]3)ccc21	161 to 162
CN(C)c1nc(NCc2ccc(NC(=O)c3ccc(F)cc3)cc2)c2ccc(CO)cc2n1	158
N#Cc1ccc2sc(CBr)nc2c1	185 to 186
CN1C(=O)C(NC(=O)Nc2ccccc2)N=C(c2ccccc2)c2ccccc21 (configuration not stated)	260 to 261
CN1CCNC(=S)N1c1cc(Cl)cc(Cl)c1	240 to 241
O=C(Nc1nc(C(C(=O)O)=C(Cl)C(=O)OCc2ccccc2)cs1)OCc1ccccc1	173 to 174
CC(=O)OCC1OC(n2cc(Cc3ccc4occc4c3)c3c(Cl)cccc32)C(OC(C)=O)C(OC(C)=O)C1OC(C)=O (configuration not stated)	186 to 188
Cc1[nH]cnc1CSCCN(C)C(N)=S	149 to 151
CCOC(=O)CCN(CNC(=O)OC(C)(C)C)C(=O)Cn1cc(C)c(=O)[nH]c1=O	174 to 175
CCCCCCCCCCNC(=O)CCCCC(=O)OO	77 to 85
N#Cc1ccccc1C(C#N)c1ccc(F)cc1 (configuration not stated)	87 to 89
CCSCC(=O)Nc1c(C)cccc1C	96 to 98
COc1cc(Nc2nc3cccc(-c4ccc5[nH]cnc5c4)c3o2)cc(OC)c1OC	150 to 156
C=CCOc1cccc([N+](=O)[O-])c1OC	93 to 94

SMILES	melting point [°C]
BrCc1ccc(CCc2ccccc2)cc1	52 to 53
CS(=O)(=O)c1ccccc1S	57
O=C1CC(c2cccc3oc4c(c23)CCCC4)CC(=O)O1	139 to 140
Cn1c(C(F)(F)F)cc(=O)n(-c2cc(OCC3CO3)c(Cl)cc2F)c1=O (configuration not stated)	93 to 96
C#CC1(O)C(C)CC2(CC1(C)C)OC(C)C(C)O2 (configuration not stated)	79 to 83
O=C1CN(c2ccccc2)C(=O)N1C(=O)c1cccc(Oc2ccccc2)c1	157 to 158
COc1cccc(OC)c1Cn1cnc2ccc(O)cc2c1=O	243 to 245
CCOC(=O)NCC(CC)C(NC(=O)OCC)NC(=O)OCC (configuration not stated)	120 to 122
CCN(CC)CCOc1ccc(N(C(=O)Nc2ccccc2)C2=NN(c3ccccc3)CC2)cc1	140 to 141
CCCCCCCCC1C=C(Oc2ccc(C(=O)O)o2)C=C2N=C3CCCCC3=C21 (configuration not stated)	142 to 144
Cc1c(Cl)cc(C(C)(C)C)c(O)c1-c1nc2cc(OC(F)(F)F)ccc2[nH]1	243 to 244
CNC(=S)N(C)c1ccc(OC)nc1	116
Cc1cccc(C(=O)Nc2ccc(C(=O)N3Cc4ccccc4Cc4ccccc43)cc2)c1C	138 to 142
COC(=O)COc1ccc(CC(C)NCC(O)c2cc3ccccc3o2)cc1C (configuration not stated)	115 to 130
CCOC(=O)C1=C(C)NN=C(C(=O)O)C1c1cccc(Cl)c1 (configuration not stated)	182
O=C(O)Cn1c(=O)[nH][nH]c1=O	220 to 223
CCOC(=O)C(=CNc1ccc(Br)cn1)[N+](=O)[O-]	141 to 142
CCN1c2ncccc2C(=O)Nc2c1nc(N(C)C)c(Br)c2C	184 to 186
COC1=C(OC)C(=O)C2=C(CC(CCCCOc3ccc(C(=O)N4CCC(c5ccccc5)CC4)cc3)C2)C1=O	90 to 94
COC(=O)Cc1c(C)n(-c2nc3ccccc3o2)c2ccc(OC)cc12	125 to 126
C[C@@H]1N(c2ccc(C#N)c(Cl)c2)C(=O)C[C@@]1(O)C1CC1	93 to 100
